Measurements from PubChem BioAssay AID1918939 (Molecular Pharmacology Branch, DTP, NCI, 2023).

System: 653999-131-R-J2-PDC complex spheroid viability
Experiment: Anticancer human tumor 653999-131-R-J2-PDC patient-derived lung adenocarcinoma cell line growth inhibition
Settings: for IC50: curve of first compound; for viability, T/C: stronger effect = lower value
In short: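 Drug combinations with the LSD1 inhibitor iadademstat tested on tumor cells co-cultured as spheroids with endothelial cells and mesenchymal stem cells. Concentrations descended in half-log increments from clinical Cmax or 10 microM.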

[1] = second compound 0.1 µM, first compound 0.00316 µM
[2] = second compound 0.1 µM, first compound 0.01 µM
[3] = second compound 0.1 µM, first compound 0.0316 µM
[4] = second compound 0.1 µM, first compound 0.1 µM
[5] = second compound 0.1 µM, first compound 0.316 µM
[6] = second compound 0.1 µM, first compound 1 µM
[7] = second compound 0.316 µM, first compound 0.00316 µM
[8] = second compound 0.316 µM, first compound 0.01 µM
[9] = second compound 0.316 µM, first compound 0.0316 µM
[10] = second compound 0.316 µM, first compound 0.1 µM
[11] = second compound 0.316 µM, first compound 0.316 µM
[12] = second compound 0.316 µM, first compound 1 µM
[13] = second compound 1 µM, first compound 0.00316 µM
[14] = second compound 1 µM, first compound 0.01 µM
[15] = second compound 1 µM, first compound 0.0316 µM
[16] = second compound 1 µM, first compound 0.1 µM
[17] = second compound 1 µM, first compound 0.316 µM
[18] = second compound 1 µM, first compound 1 µM
[19] = second compound 3.16 µM, first compound 0.00316 µM
[20] = second compound 3.16 µM, first compound 0.01 µM
[21] = second compound 3.16 µM, first compound 0.0316 µM
[22] = second compound 3.16 µM, first compound 0.1 µM
[23] = second compound 3.16 µM, first compound 0.316 µM
[24] = second compound 3.16 µM, first compound 1 µM
[25] = second compound 10 µM, first compound 0.00316 µM
[26] = second compound 10 µM, first compound 0.01 µM
[27] = second compound 10 µM, first compound 0.0316 µM
[28] = second compound 10 µM, first compound 0.1 µM
[29] = second compound 10 µM, first compound 0.316 µM
[30] = second compound 10 µM, first compound 1 µM
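Also: spheroids exposed to agents for seven days before readout.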

CC1COCCN1c1cc(-c2ccnn2C)c2ccnc(-c3ccn[nH]3)c2n1 (stereo not given) + NC1CC1c1ccc(-c2cccc(O)c2)cc1
IC50 (second compound 0.1 µM): 5.31 nM | IC50 (second compound 0.316 µM): < 3.16 nM | IC50 (second compound 1 µM): < 3.16 nM | IC50 (second compound 3.16 µM): < 3.16 nM | IC50 (second compound 10 µM): < 3.16 nM | viability, T/C [1]: 52% | viability, T/C [2]: 50% | viability, T/C [3]: 44.3% | viability, T/C [4]: 29.7% | viability, T/C [5]: 42.7% | viability, T/C [6]: 45.7% | viability, T/C [7]: 47.7% | viability, T/C [8]: 44.4% | viability, T/C [9]: 36.7% | viability, T/C [10]: 36.6% | viability, T/C [11]: 36.1% | viability, T/C [12]: 48.5% | viability, T/C [13]: 45.5% | viability, T/C [14]: 47% | viability, T/C [15]: 36.8% | viability, T/C [16]: 32.7% | viability, T/C [17]: 31% | viability, T/C [18]: 36.3% | viability, T/C [19]: 49.5% | viability, T/C [20]: 45.5% | viability, T/C [21]: 36.5% | viability, T/C [22]: 28.8% | viability, T/C [23]: 36.1% | viability, T/C [24]: 39.7% | viability, T/C [25]: 47.5% | viability, T/C [26]: 46.6% | viability, T/C [27]: 39.5% | viability, T/C [28]: 29% | viability, T/C [29]: 29.7% | viability, T/C [30]: 34.7%

COc1ccc([C@@H](O)c2cc(-c3ncnc4cc(N5CCOCC5)ccc34)c(F)cc2Cl)nn1 + NC1CC1c1ccc(-c2cccc(O)c2)cc1
IC50 (second compound 0.1 µM): 2810 nM | IC50 (second compound 0.316 µM): 1250 nM | IC50 (second compound 1 µM): 972 nM | IC50 (second compound 3.16 µM): 1130 nM | IC50 (second compound 10 µM): 968 nM | viability, T/C [3]: 79.2% | viability, T/C [4]: 84.6% | viability, T/C [5]: 72.1% | viability, T/C [6]: 55% | viability, T/C (second compound 0.1 µM, first compound 3.16 µM): 54.1% | viability, T/C (second compound 0.1 µM, first compound 10 µM): 28.5% | viability, T/C [9]: 74.1% | viability, T/C [10]: 86.5% | viability, T/C [11]: 65.8% | viability, T/C [12]: 51.1% | viability, T/C (second compound 0.316 µM, first compound 3.16 µM): 40.7% | viability, T/C (second compound 0.316 µM, first compound 10 µM): 26.5% | viability, T/C [15]: 85.6% | viability, T/C [16]: 74.3% | viability, T/C [17]: 70.2% | viability, T/C [18]: 49.3% | viability, T/C (second compound 1 µM, first compound 3.16 µM): 31.9% | viability, T/C (second compound 1 µM, first compound 10 µM): 24.4% | viability, T/C [21]: 77.4% | viability, T/C [22]: 71.5% | viability, T/C [23]: 63.2% | viability, T/C [24]: 49.5% | viability, T/C (second compound 3.16 µM, first compound 3.16 µM): 39.4% | viability, T/C (second compound 3.16 µM, first compound 10 µM): 22.6% | viability, T/C [27]: 71.2% | viability, T/C [28]: 70.6% | viability, T/C [29]: 58.2% | viability, T/C [30]: 53.3% | viability, T/C (second compound 10 µM, first compound 3.16 µM): 33% | viability, T/C (second compound 10 µM, first compound 10 µM): 26.1%

O=C(C=Cn1cnc(-c2cc(C(F)(F)F)cc(C(F)(F)F)c2)n1)NNc1cnccn1 + NC1CC1c1ccc(-c2cccc(O)c2)cc1
IC50 (second compound 0.1 µM): 14.8 nM | IC50 (second compound 0.316 µM): 6.9 nM | IC50 (second compound 1 µM): < 3.16 nM | IC50 (second compound 3.16 µM): < 3.16 nM | IC50 (second compound 10 µM): < 3.16 nM | viability, T/C [1]: 53.4% | viability, T/C [2]: 53.9% | viability, T/C [3]: 47.5% | viability, T/C [4]: 38.8% | viability, T/C [5]: 39% | viability, T/C [6]: 29.2% | viability, T/C [7]: 54% | viability, T/C [8]: 48.3% | viability, T/C [9]: 44.3% | viability, T/C [10]: 34.9% | viability, T/C [11]: 37.2% | viability, T/C [12]: 31.8% | viability, T/C [13]: 47.8% | viability, T/C [14]: 51.5% | viability, T/C [15]: 43% | viability, T/C [16]: 34.2% | viability, T/C [17]: 27.2% | viability, T/C [18]: 27.4% | viability, T/C [19]: 46.4% | viability, T/C [20]: 45.8% | viability, T/C [21]: 38.8% | viability, T/C [22]: 41.1% | viability, T/C [23]: 30% | viability, T/C [24]: 24.8% | viability, T/C [25]: 49.5% | viability, T/C [26]: 48.8% | viability, T/C [27]: 39.5% | viability, T/C [28]: 39.6% | viability, T/C [29]: 33.7% | viability, T/C [30]: 27%
